Assay results: ChEMBL document CHEMBL5212743, “Selectivity Literature for EUbOPEN Chemogenomics Library wave 3” (2023)
Values belong to the compound of their own block, whether it stands above or below them.

What was measured:
[1] = target: Prostaglandin E2 receptor EP4 subtype (Homo sapiens, UniProt P35408); assay: Selectivity interaction (Eurofins-Panlabs radioligand binding assay ) EUB0000307b PTGER4
[2] = target: Serine/threonine-protein kinase WNK4 (Homo sapiens) (UniProt Q96J92); assay: Selectivity interaction (KinomeScan (DiscoverX)) EUB0000307b WNK4; settings: at 1 µM
Sequence of Serine/threonine-protein kinase WNK4 (Homo sapiens) (Q96J92 whole entry, the tested form may be a part): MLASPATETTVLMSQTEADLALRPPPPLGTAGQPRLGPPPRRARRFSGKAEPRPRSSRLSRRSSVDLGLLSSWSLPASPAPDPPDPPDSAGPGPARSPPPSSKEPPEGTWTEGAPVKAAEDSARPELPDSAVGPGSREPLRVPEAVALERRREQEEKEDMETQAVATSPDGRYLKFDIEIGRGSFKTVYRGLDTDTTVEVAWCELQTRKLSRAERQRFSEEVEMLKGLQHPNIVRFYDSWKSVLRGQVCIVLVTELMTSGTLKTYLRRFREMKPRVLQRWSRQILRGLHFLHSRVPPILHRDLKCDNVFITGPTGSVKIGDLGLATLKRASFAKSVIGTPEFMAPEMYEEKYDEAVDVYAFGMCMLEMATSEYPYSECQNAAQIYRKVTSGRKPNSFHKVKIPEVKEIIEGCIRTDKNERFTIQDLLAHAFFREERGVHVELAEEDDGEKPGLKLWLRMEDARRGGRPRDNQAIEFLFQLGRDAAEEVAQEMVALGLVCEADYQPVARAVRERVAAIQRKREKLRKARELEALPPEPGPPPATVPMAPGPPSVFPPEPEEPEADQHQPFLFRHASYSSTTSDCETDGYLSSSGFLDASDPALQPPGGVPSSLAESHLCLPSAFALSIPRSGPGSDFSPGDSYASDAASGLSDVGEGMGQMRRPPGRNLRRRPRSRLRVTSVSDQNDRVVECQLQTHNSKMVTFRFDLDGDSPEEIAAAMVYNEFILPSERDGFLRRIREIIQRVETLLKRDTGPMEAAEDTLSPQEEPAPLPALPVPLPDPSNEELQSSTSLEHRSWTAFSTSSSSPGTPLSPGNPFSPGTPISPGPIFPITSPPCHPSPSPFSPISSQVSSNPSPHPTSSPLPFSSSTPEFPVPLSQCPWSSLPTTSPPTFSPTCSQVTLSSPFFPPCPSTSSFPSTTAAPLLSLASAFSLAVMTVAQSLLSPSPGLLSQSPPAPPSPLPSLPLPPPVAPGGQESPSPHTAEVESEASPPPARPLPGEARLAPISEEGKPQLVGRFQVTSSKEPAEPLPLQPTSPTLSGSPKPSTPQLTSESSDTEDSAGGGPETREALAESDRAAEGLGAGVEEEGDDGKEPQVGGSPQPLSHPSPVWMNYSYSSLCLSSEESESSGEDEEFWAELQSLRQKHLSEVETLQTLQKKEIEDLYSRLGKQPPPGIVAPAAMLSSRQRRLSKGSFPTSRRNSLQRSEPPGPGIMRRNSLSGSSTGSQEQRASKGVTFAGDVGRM

[3] = target: Epithelial discoidin domain-containing receptor 1 (Homo sapiens, UniProt Q08345); assay: Selectivity interaction (KinomeScan (DiscoverX)) EUB0000307b DDR1; settings: at 1 µM
Adenosine receptor A3 = target: T1, Adenosine receptor A3 (Homo sapiens, UniProt P0DMS8); assay: Selectivity interaction (Eurofins-Panlabs radioligand binding assay ) EUB0000307b ADORA3
T1 sequence (P0DMS8 whole entry): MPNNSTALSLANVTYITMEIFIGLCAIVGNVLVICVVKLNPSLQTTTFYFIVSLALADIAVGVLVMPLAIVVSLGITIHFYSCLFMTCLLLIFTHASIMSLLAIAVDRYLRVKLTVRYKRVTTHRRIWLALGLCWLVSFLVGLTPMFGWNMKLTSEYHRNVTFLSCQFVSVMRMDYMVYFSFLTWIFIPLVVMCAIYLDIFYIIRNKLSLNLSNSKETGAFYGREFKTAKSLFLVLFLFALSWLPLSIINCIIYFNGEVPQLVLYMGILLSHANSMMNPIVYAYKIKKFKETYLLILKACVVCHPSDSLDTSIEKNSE

D(1A) dopamine receptor = D(1A) dopamine receptor (Homo sapiens, UniProt P21728); assay: Selectivity interaction (GPCR panel (PDSP screen)) EUB0000335a DRD1
[4] = target: Serine/threonine-protein kinase WNK2 (Homo sapiens) (UniProt Q9Y3S1); assay: Selectivity interaction (KinomeScan (DiscoverX)) EUB0000335a WNK2; settings: at 1 µM
[5] = target: Mitotic checkpoint serine/threonine-protein kinase BUB1 (Homo sapiens) (UniProt O43683); assay: Selectivity interaction (KinomeScan (DiscoverX)) EUB0000335a BUB1; settings: at 1 µM
Sequence of Mitotic checkpoint serine/threonine-protein kinase BUB1 (Homo sapiens) (O43683 whole entry, looked up): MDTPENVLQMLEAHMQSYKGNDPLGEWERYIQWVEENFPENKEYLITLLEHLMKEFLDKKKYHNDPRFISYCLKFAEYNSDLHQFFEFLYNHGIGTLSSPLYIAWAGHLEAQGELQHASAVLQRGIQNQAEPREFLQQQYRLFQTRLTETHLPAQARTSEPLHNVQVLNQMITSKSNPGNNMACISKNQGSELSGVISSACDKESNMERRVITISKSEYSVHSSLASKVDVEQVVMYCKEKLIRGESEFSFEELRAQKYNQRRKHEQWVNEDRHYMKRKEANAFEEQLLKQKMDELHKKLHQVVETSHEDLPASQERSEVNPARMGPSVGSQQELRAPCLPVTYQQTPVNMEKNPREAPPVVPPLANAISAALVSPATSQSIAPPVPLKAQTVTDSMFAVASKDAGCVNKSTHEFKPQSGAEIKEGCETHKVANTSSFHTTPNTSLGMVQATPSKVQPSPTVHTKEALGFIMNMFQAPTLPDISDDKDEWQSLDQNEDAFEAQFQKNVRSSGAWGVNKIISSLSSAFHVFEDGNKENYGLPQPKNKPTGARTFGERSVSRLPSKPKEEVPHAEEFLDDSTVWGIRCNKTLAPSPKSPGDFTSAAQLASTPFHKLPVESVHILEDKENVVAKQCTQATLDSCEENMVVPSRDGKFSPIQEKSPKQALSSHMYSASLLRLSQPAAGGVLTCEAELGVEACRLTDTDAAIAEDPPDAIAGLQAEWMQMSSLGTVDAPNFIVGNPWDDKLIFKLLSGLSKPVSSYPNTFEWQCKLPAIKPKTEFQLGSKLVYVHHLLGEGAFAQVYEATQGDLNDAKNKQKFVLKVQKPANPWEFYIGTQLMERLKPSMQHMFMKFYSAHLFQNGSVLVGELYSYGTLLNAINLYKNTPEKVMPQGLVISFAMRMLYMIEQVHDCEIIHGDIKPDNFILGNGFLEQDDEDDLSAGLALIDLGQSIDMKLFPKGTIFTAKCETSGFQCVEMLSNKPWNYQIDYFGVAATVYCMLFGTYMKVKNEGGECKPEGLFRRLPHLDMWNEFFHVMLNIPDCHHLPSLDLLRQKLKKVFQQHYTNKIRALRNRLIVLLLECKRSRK

[6] = target: T2, Mitogen-activated protein kinase kinase kinase 13 (Homo sapiens) (UniProt O43283); assay: Selectivity interaction (KinomeScan (DiscoverX)) EUB0000335a MAP3K13; settings: at 1 µM
T2 sequence (whole entry): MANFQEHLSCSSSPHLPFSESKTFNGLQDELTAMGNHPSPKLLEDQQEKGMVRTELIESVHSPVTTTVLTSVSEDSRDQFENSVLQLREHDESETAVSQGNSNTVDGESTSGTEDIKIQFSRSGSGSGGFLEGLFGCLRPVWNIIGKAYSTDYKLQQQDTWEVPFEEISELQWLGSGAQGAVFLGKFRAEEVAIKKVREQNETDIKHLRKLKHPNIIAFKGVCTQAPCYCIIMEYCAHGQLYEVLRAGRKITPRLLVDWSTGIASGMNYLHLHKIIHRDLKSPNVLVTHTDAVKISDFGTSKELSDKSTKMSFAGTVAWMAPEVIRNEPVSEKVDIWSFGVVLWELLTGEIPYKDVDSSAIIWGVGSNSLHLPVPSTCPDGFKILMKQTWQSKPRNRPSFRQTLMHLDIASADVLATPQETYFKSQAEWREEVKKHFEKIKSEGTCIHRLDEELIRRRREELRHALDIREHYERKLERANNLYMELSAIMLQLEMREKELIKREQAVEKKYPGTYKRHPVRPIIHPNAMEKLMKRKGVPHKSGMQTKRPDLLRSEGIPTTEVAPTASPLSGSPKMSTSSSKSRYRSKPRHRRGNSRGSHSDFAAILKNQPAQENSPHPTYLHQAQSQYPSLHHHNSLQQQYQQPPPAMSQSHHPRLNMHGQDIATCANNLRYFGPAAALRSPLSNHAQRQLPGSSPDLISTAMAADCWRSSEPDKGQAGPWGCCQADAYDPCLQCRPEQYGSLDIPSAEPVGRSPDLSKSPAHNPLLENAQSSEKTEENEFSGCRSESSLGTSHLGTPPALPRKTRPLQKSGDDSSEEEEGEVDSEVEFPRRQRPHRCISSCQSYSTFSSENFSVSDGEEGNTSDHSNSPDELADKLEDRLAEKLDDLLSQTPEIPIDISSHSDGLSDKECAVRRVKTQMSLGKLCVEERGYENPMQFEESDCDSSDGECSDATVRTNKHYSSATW

[7] = target: Receptor-interacting serine/threonine-protein kinase 1 (Homo sapiens) (UniProt Q13546); assay: Selectivity interaction (KinomeScan (DiscoverX)) EUB0000335a RIPK1; settings: at 1 µM
Sequence of Receptor-interacting serine/threonine-protein kinase 1 (Homo sapiens) (Q13546 whole entry): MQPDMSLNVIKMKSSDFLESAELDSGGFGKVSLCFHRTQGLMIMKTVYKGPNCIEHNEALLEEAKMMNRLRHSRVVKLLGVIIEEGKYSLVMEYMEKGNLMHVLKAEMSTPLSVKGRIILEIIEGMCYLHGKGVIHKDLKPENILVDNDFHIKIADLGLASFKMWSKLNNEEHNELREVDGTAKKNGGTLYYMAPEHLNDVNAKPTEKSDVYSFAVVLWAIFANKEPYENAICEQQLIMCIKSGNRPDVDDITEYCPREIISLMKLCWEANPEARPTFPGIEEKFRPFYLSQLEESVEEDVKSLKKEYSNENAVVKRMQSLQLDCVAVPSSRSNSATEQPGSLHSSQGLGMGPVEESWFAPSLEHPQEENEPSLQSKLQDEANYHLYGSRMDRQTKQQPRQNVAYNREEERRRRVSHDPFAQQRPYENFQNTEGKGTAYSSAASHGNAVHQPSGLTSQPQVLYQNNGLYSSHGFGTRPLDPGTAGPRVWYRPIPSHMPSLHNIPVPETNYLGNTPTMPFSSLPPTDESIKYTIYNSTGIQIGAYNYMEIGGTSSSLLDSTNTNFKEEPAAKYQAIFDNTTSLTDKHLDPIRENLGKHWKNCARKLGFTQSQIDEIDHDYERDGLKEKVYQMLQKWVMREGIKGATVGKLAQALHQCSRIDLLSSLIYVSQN

[8] = target: Cyclin-dependent kinase 3 (Homo sapiens) (UniProt Q00526); assay: Selectivity interaction (KinomeScan (DiscoverX)) EUB0000335a CDK3; settings: at 1 µM
Sequence of Cyclin-dependent kinase 3 (Homo sapiens) (Q00526 whole entry, looked up): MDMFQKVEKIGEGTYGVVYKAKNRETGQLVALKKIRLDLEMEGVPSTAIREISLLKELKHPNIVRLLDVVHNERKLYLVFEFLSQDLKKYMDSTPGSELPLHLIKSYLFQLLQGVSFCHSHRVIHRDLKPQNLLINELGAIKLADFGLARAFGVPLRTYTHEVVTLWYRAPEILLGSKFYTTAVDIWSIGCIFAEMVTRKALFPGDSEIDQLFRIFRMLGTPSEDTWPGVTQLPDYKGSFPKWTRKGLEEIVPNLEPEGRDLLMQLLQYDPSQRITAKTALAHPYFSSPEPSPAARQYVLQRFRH

[9] = target: T3, Alpha-1D adrenergic receptor (Homo sapiens, UniProt P25100); assay: Selectivity interaction (GPCR panel (PDSP screen)) EUB0000545a ADRA1D
T3 sequence (P25100 whole entry): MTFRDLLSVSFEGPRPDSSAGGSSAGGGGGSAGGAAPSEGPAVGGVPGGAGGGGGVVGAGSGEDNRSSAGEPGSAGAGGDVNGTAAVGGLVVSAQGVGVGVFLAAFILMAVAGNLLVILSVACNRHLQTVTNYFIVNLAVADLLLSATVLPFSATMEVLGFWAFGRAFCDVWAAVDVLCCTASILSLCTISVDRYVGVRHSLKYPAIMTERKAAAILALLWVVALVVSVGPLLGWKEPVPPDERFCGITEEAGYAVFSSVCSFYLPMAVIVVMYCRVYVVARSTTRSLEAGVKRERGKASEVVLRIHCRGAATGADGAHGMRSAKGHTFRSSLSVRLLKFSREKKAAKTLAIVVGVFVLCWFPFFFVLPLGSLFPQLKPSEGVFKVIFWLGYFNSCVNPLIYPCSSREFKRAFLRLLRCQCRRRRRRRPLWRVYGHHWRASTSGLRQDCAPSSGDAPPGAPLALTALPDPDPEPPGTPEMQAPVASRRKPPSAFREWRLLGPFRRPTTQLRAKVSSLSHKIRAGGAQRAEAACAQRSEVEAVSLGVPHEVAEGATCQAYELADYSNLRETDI

[10] = target: Rho-associated protein kinase 1 (Homo sapiens) (UniProt Q13464); assay: Selectivity interaction (KinomeScan (DiscoverX)) EUB0000545a ROCK1; settings: at 1 µM
[11] = target: Dual specificity tyrosine-phosphorylation-regulated kinase 1B (Homo sapiens, UniProt Q9Y463); assay: Selectivity interaction (KinomeScan (DiscoverX)) EUB0000545a DYRK1B; settings: at 1 µM
Sequence of Dual specificity tyrosine-phosphorylation-regulated kinase 1B (Q9Y463 whole entry, looked up): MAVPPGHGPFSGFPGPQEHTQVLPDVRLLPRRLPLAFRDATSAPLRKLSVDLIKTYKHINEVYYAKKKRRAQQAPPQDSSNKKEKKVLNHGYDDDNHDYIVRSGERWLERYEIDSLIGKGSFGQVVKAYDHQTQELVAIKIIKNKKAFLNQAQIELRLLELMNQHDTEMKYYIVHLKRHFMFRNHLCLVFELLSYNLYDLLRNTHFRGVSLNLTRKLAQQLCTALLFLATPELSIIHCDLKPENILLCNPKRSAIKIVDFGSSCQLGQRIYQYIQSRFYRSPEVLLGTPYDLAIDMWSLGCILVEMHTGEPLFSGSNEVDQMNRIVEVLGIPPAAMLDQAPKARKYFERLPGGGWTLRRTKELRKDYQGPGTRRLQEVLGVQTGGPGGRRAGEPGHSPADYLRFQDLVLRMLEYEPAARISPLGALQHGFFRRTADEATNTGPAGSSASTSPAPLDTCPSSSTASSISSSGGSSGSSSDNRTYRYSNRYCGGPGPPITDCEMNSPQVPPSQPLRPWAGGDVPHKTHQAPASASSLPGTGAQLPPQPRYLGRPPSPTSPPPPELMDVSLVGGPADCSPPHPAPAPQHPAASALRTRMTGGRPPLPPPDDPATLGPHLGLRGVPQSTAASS

Focal adhesion kinase 1 = Focal adhesion kinase 1 (Homo sapiens, UniProt Q05397); assay: Selectivity interaction (KinomeScan (DiscoverX)) EUB0000545a PTK2; settings: at 1 µM
Sequence of Focal adhesion kinase 1 (Q05397 2-1052 limits assumed): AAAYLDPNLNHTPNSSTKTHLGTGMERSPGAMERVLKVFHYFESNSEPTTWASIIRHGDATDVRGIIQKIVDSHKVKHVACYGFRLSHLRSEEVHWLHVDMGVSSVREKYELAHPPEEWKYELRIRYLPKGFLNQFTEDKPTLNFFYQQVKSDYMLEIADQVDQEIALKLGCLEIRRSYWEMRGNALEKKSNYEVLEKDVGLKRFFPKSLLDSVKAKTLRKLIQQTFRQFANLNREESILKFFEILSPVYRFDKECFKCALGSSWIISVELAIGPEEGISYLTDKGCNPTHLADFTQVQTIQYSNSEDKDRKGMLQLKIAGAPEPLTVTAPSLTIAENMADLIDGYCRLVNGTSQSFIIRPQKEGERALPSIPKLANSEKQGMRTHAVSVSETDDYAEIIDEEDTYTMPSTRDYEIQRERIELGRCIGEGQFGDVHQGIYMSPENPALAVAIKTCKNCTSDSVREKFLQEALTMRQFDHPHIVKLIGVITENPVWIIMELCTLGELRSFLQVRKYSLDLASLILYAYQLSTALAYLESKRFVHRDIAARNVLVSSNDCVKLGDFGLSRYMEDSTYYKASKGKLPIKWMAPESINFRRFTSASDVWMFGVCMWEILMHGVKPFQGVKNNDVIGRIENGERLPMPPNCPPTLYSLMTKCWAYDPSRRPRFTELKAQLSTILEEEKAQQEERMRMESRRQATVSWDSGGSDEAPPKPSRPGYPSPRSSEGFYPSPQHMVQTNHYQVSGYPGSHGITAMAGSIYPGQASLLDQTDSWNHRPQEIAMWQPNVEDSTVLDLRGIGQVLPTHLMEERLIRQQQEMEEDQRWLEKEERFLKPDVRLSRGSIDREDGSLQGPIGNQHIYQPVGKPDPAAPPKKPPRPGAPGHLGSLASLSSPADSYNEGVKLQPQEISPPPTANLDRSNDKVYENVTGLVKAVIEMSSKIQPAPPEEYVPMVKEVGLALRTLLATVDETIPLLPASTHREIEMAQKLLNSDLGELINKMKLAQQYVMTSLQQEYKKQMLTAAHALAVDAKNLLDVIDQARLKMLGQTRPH

- IC50 [1]: 1120 nM
- % of control [2]: 0%
- % of control [3]: 1.5%
- IC50 (Adenosine receptor A3): 1140 nM
Compound: Cc1c(NC(=O)c2cc(C(N)=O)nc3cc(F)ccc23)c(C(F)(F)F)nn1Cc1ccc(C#N)cc1 [BAY-876]

- Ki (D(1A) dopamine receptor): > 10000 nM
- % of control [4]: 0%
- % of control [5]: 1.9%
- % of control [6]: 0%
- % of control [7]: 30%
- % of control [8]: 41%
Compound: O=C(NCc1ncc(C(F)(F)F)cc1Cl)c1ccc2c(c1)C1(CCS(=O)(=O)CC1)[C@@H](C1CC1)N2S(=O)(=O)c1ccc(F)cc1 [BAY-786]

- Ki [9]: > 10000 nM
- % of control [10]: 0.5%
- % of control [11]: 37%
- % of control (Focal adhesion kinase 1): 17%
Compound: CC(=O)N1CCC(c2ccc(C(=O)NC3=NCCN3)cc2C(F)(F)F)CC1 [BI 0054]
